According to patent publication US20260007681A1, “INDOLE DERIVATIVES AS ESTROGEN RECEPTOR DEGRADERS” (REGENTS OF THE UNIVERSITY OF MICHIGAN, priority 2022, published 2026):

target: ER (Homo sapiens (Human), UniProt P03372); assay: Western blot analysis (Compounds B1-B278); assay type: cell-based; details: ER degradation by traditional Western blot; DC50 classes
In short: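 Relative target-protein levels come from densitometry of immunoblots, normalized to GAPDH. Lysates from treated cells were prepared in RIPA buffer (pH 7.6) containing protease inhibitors, and equal protein amounts, checked by BCA, were separated on 10% gels and blotted onto PVDF.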

Chain of ER (P03372 whole entry): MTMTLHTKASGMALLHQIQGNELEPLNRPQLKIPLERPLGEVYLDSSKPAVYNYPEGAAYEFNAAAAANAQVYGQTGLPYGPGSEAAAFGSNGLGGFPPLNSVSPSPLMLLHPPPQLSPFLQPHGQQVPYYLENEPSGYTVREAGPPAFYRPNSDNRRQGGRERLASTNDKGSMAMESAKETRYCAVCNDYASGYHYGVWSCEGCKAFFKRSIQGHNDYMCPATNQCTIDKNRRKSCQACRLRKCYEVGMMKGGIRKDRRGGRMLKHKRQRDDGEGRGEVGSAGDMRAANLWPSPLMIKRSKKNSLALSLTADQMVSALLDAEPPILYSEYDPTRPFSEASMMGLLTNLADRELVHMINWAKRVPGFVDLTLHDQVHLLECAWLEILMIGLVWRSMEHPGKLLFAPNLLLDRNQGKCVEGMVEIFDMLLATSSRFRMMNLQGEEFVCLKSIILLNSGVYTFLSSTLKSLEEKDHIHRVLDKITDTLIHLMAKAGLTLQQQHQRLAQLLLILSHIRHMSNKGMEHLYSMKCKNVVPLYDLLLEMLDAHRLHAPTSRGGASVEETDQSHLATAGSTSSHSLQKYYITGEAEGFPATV

**Q.** Which “Traditional Western Degradation Potency” value does the source give for C[C@@H]1Cc2c([nH]c3ccccc23)[C@@H](c2c(F)cc(N3CCC4(CC3)CC(C(=O)N3CCC(N5Cc6cc7c(cc6C5)C(=O)N(C5CCC(=O)NC5=O)C7)CC3)C4)cc2F)N1CC(F)F (stereo partly drawn) [Compound B41, 3-(6-(1-(7-(4-((1R,3R)-2-(2,2-difluoroethyl)-3-methyl-2,3,4,9-tetrahydro-1H-pyrido[3,4-b]indol-1-yl)-3,5-difluorophenyl)-7-azaspiro[3.5]nonane-2-carbonyl)piperidin-4-yl)-1-oxo-3,5,6,7-tetrahydropyrrolo[3,4-f]isoindol-2(1H)-yl)piperidine-2,6-dione] here?
**A.** A (“A”: <10 nM)

**Q.** How did the “Traditional Western Degradation Potency” value turn out when C[C@@H]1Cc2c([nH]c3ccccc23)[C@@H](c2c(F)cc(N3CC(CC(=O)N4Cc5cc6c(cc5C4)C(=O)N(C4CCC(=O)NC4=O)C6)C3)cc2F)N1CC(F)F (stereo partly drawn) [Compound B42, 3-(6-(2-(1-(4-((1R,3R)-2-(2,2-difluoroethyl)-3-methyl-2,3,4,9-tetrahydro-1H-pyrido[3,4-b]indol-1-yl)-3,5-difluorophenyl)azetidin-3-yl)acetyl)-1-oxo-3,5,6,7-tetrahydropyrrolo[3,4-f]isoindol-2(1H)-yl)piperidine-2,6-dione] was run?
**A.** C (“C”: >100 nM)

**Q.** For C[C@@H]1Cc2c([nH]c3ccccc23)[C@@H](c2c(F)cc(N3CC(CC(=O)N4CC(N5Cc6cc7c(cc6C5)C(=O)N(C5CCC(=O)NC5=O)C7)C4)C3)cc2F)N1CC(F)F (stereo partly drawn) [Compound B43, 3-(6-(1-(2-(1-(4-((1R,3R)-2-(2,2-difluoroethyl)-3-methyl-2,3,4,9-tetrahydro-1H-pyrido[3,4-b]indol-1-yl)-3,5-difluorophenyl)azetidin-3-yl)acetyl)azetidin-3-yl)-1-oxo-3,5,6,7-tetrahydropyrrolo[3,4-f]isoindol-2(1H)-yl)piperidine-2,6-dione], which “Traditional Western Degradation Potency” value is on record?
**A.** B (“B”: 10-100 nM)

**Q.** With C[C@@H]1Cc2c([nH]c3ccccc23)[C@@H](c2c(F)cc(N3CCC(CC(=O)N4Cc5cc6c(cc5C4)C(=O)N(C4CCC(=O)NC4=O)C6)CC3)cc2F)N1CC(F)F (stereo partly drawn) [Compound B44, 3-(6-(2-(1-(4-((1R,3R)-2-(2,2-difluoroethyl)-3-methyl-2,3,4,9-tetrahydro-1H-pyrido[3,4-b]indol-1-yl)-3,5-difluorophenyl)piperidin-4-yl)acetyl)-1-oxo-3,5,6,7-tetrahydropyrrolo[3,4-f]isoindol-2(1H)-yl)piperidine-2,6-dione] as the compound, how does the “Traditional Western Degradation Potency” value read?
**A.** C (“C”: >100 nM)

**Q.** For C[C@@H]1Cc2c([nH]c3ccccc23)[C@@H](c2c(F)cc(N3CC4(CCCN(CC(=O)N5Cc6cc7c(cc6C5)C(=O)N(C5CCC(=O)NC5=O)C7=O)C4)C3)cc2F)N1CC(F)F (stereo partly drawn) [Compound B45, 6-(2-(2-(4-((1R,3R)-2-(2,2-difluoroethyl)-3-methyl-2,3,4,9-tetrahydro-1H-pyrido[3,4-b]indol-1-yl)-3,5-difluorophenyl)-2,6-diazaspiro[3.5]nonan-6-yl)acetyl)-2-(2,6-dioxopiperidin-3-yl)-6,7-dihydropyrrolo[3,4-f]isoindole-1,3(2H,5H)-dione], which “Traditional Western Degradation Potency” value is on record?
**A.** C (“C”: >100 nM)

**Q.** Which “Traditional Western Degradation Potency” value does the source give for C[C@@H]1Cc2c([nH]c3ccccc23)[C@@H](c2c(F)cc(N3CC4(CCCN(CC(=O)N5Cc6cc7c(cc6C5)C(=O)N(C5CCC(=O)NC5=O)C7)C4)C3)cc2F)N1CC(F)F (stereo partly drawn) [Compound B46, 3-(6-(2-(2-(4-((1R,3R)-2-(2,2-difluoroethyl)-3-methyl-2,3,4,9-tetrahydro-1H-pyrido[3,4-b]indol-1-yl)-3,5-difluorophenyl)-2,6-diazaspiro[3.5]nonan-6-yl)acetyl)-1-oxo-3,5,6,7-tetrahydropyrrolo[3,4-f]isoindol-2(1H)-yl)piperidine-2,6-dione] here?
**A.** B (“B”: 10-100 nM)

**Q.** How did the “Traditional Western Degradation Potency” value turn out when C[C@@H]1Cc2c([nH]c3ccccc23)[C@@H](c2c(F)cc(N3CCC4(CCN(CC(=O)N5Cc6cc7c(cc6C5)C(=O)N(C5CCC(=O)NC5=O)C7=O)CC4)C3)cc2F)N1CC(F)F (stereo partly drawn) [Compound B47, 6-(2-(2-(4-((1R,3R)-2-(2,2-difluoroethyl)-3-methyl-2,3,4,9-tetrahydro-1H-pyrido[3,4-b]indol-1-yl)-3,5-difluorophenyl)-2,8-diazaspiro[4.5]decan-8-yl)acetyl)-2-(2,6-dioxopiperidin-3-yl)-6,7-dihydropyrrolo[3,4-f]isoindole-1,3(2H,5H)-dione] was run?
**A.** A (“A”: <10 nM)

**Q.** C[C@@H]1Cc2c([nH]c3ccccc23)[C@@H](c2c(F)cc(N3CCC4(CCN(CC(=O)N5Cc6cc7c(cc6C5)C(=O)N(C5CCC(=O)NC5=O)C7)CC4)C3)cc2F)N1CC(F)F (stereo partly drawn) [Compound B48, 3-(6-(2-(2-(4-((1R,3R)-2-(2,2-difluoroethyl)-3-methyl-2,3,4,9-tetrahydro-1H-pyrido[3,4-b]indol-1-yl)-3,5-difluorophenyl)-2,8-diazaspiro[4.5]decan-8-yl)acetyl)-1-oxo-3,5,6,7-tetrahydropyrrolo[3,4-f]isoindol-2(1H)-yl)piperidine-2,6-dione] was tested. Which “Traditional Western Degradation Potency” value did it give?
**A.** A (“A”: <10 nM)

**Q.** For C[C@@H]1Cc2c([nH]c3ccccc23)[C@@H](c2c(F)cc(N3CCC(N4CCC(C(=O)N5Cc6cc7c(cc6C5)C(=O)N(C5CCC(=O)NC5=O)C7=O)CC4)C3)cc2F)N1CC(F)F (stereo partly drawn) [Compound B50, 6-(1-(1-(4-((1R,3R)-2-(2,2-difluoroethyl)-3-methyl-2,3,4,9-tetrahydro-1H-pyrido[3,4-b]indol-1-yl)-3,5-difluorophenyl)pyrrolidin-3-yl)piperidine-4-carbonyl)-2-(2,6-dioxopiperidin-3-yl)-6,7-dihydropyrrolo[3,4-f]isoindole-1,3(2H,5H)-dione], which “Traditional Western Degradation Potency” value is on record?
**A.** C (“C”: >100 nM)

**Q.** Which “Traditional Western Degradation Potency” value does the source give for C[C@@H]1Cc2c([nH]c3ccccc23)[C@@H](c2c(F)cc(N3CCC4(CC3)CN(C(=O)CN3Cc5cc6c(cc5C3)C(=O)N(C3CCC(=O)NC3=O)C6=O)C4)cc2F)N1CC(F)F (stereo partly drawn) [Compound B51, 6-(2-(7-(4-((1R,3R)-2-(2,2-difluoroethyl)-3-methyl-2,3,4,9-tetrahydro-1H-pyrido[3,4-b]indol-1-yl)-3,5-difluorophenyl)-2,7-diazaspiro[3.5]nonan-2-yl)-2-oxoethyl)-2-(2,6-dioxopiperidin-3-yl)-6,7-dihydropyrrolo[3,4-f]isoindole-1,3(2H,5H)-dione] here?
**A.** A (“A”: <10 nM)

**Q.** C[C@@H]1Cc2c([nH]c3ccccc23)[C@@H](c2c(F)cc(N3CCC4(CCN(C(=O)CN5Cc6cc7c(cc6C5)C(=O)N(C5CCC(=O)NC5=O)C7=O)CC4)CC3)cc2F)N1CC(F)F (stereo partly drawn) [Compound B52, 6-(2-(9-(4-((1R,3R)-2-(2,2-difluoroethyl)-3-methyl-2,3,4,9-tetrahydro-1H-pyrido[3,4-b]indol-1-yl)-3,5-difluorophenyl)-3,9-diazaspiro[5.5]undecan-3-yl)-2-oxoethyl)-2-(2,6-dioxopiperidin-3-yl)-6,7-dihydropyrrolo[3,4-f]isoindole-1,3(2H,5H)-dione] was tested. Which “Traditional Western Degradation Potency” value did it give?
**A.** A (“A”: <10 nM)

**Q.** C[C@@H]1Cc2c([nH]c3ccccc23)[C@@H](c2c(F)cc(N3CCC(C(=O)N4CCC(CN5Cc6cc7c(cc6C5)C(=O)N(C5CCC(=O)NC5=O)C7=O)CC4)CC3)cc2F)N1CC(F)F (stereo partly drawn) [Compound B53, 6-((1-(1-(4-((1R,3R)-2-(2,2-difluoroethyl)-3-methyl-2,3,4,9-tetrahydro-1H-pyrido[3,4-b]indol-1-yl)-3,5-difluorophenyl)piperidine-4-carbonyl)piperidin-4-yl)methyl)-2-(2,6-dioxopiperidin-3-yl)-6,7-dihydropyrrolo[3,4-f]isoindole-1,3(2H,5H)-dione] was tested. Which “Traditional Western Degradation Potency” value did it give?
**A.** B (“B”: 10-100 nM)

**Q.** C[C@@H]1Cc2c([nH]c3ccccc23)[C@@H](c2c(F)cc(N3CCC(C(=O)N4CCC(N5Cc6cc7c(cc6C5)C(=O)N(C5CCC(=O)NC5=O)C7=O)CC4)CC3)cc2F)N1CC(F)F (stereo partly drawn) [Compound B54, 6-(1-(1-(4-((1R,3R)-2-(2,2-difluoroethyl)-3-methyl-2,3,4,9-tetrahydro-1H-pyrido[3,4-b]indol-1-yl)-3,5-difluorophenyl)piperidine-4-carbonyl)piperidin-4-yl)-2-(2,6-dioxopiperidin-3-yl)-6,7-dihydropyrrolo[3,4-f]isoindole-1,3(2H,5H)-dione] was tested. Which “Traditional Western Degradation Potency” value did it give?
**A.** A (“A”: <10 nM)

**Q.** Which “Traditional Western Degradation Potency” value does the source give for C[C@@H]1Cc2c([nH]c3ccccc23)[C@@H](c2c(F)cc(N3CC4(CC(C(=O)N5CCC(CN6Cc7cc8c(cc7C6)C(=O)N(C6CCC(=O)NC6=O)C8=O)CC5)C4)C3)cc2F)N1CC(F)F (stereo partly drawn) [Compound B55, 6-((1-(2-(4-((1R,3R)-2-(2,2-difluoroethyl)-3-methyl-2,3,4,9-tetrahydro-1H-pyrido[3,4-b]indol-1-yl)-3,5-difluorophenyl)-2-azaspiro[3.3]heptane-6-carbonyl)piperidin-4-yl)methyl)-2-(2,6-dioxopiperidin-3-yl)-6,7-dihydropyrrolo[3,4-f]isoindole-1,3(2H,5H)-dione] here?
**A.** A (“A”: <10 nM)

**Q.** For C[C@@H]1Cc2c([nH]c3ccccc23)[C@@H](c2c(F)cc(N3CC4(CC(C(=O)N5CCC(N6Cc7cc8c(cc7C6)C(=O)N(C6CCC(=O)NC6=O)C8=O)CC5)C4)C3)cc2F)N1CC(F)F (stereo partly drawn) [Compound B56, 6-(1-(2-(4-((1R,3R)-2-(2,2-difluoroethyl)-3-methyl-2,3,4,9-tetrahydro-1H-pyrido[3,4-b]indol-1-yl)-3,5-difluorophenyl)-2-azaspiro[3.3]heptane-6-carbonyl)piperidin-4-yl)-2-(2,6-dioxopiperidin-3-yl)-6,7-dihydropyrrolo[3,4-f]isoindole-1,3(2H,5H)-dione], which “Traditional Western Degradation Potency” value is on record?
**A.** A (“A”: <10 nM)

**Q.** Which “Traditional Western Degradation Potency” value does the source give for C[C@@H]1Cc2c([nH]c3ccccc23)[C@@H](c2c(F)cc(N3CCC(N4CC(CN5Cc6cc7c(cc6C5)C(=O)N(C5CCC(=O)NC5=O)C7=O)C4)CC3)cc2F)N1CC(F)F (stereo partly drawn) [Compound B57, 6-((1-(1-(4-((1R,3R)-2-(2,2-difluoroethyl)-3-methyl-2,3,4,9-tetrahydro-1H-pyrido[3,4-b]indol-1-yl)-3,5-difluorophenyl)piperidin-4-yl)azetidin-3-yl)methyl)-2-(2,6-dioxopiperidin-3-yl)-6,7-dihydropyrrolo[3,4-f]isoindole-1,3(2H,5H)-dione] here?
**A.** B (“B”: 10-100 nM)
